In US10918648B2, “Estrogen receptor modulator combinations” (The Regents of the University of California, priority 2016, dated 2021):
Where two headings read alike, the source gives them in different places.

Key:
A549 NSCLC cells = assay: NSCLC cell proliferation in vitro (MTS assay); format: cell-based, human; conditions: 72 hours, MTS assay
H1975 NSCLC cells = assay: NSCLC cell proliferation in vitro (MTS assay); format: cell-based, human; conditions: 72 hours
Experimental: (§1) Cell culture: Human breast and non-small cell lung cancer cells (MCF7, ZR75-1, MDAMB231, A549, H23, H1975, […]) were from ATCC. MCF7-HER2 were a kind gift of Dr. Dennis Slamon (23). Cell lines were routinely maintained in RPMI 1640 or DMEM medium with 10% fetal bovine serum (FBS) (Sigma-Aldrich) and 1% Antibiotic-Antimycotic solution 100× (Mediatech, Herndon, Va.). When indicated, for estrogen-free conditions, media was changed 48 h before experiments to phenol-red free RPMI 1640/DMEM with 1% dextran-coated, charcoal-treated (DCC)-FBS (24,25). Otherwise experiments were performed in phenol-red free RPMI 1640/DMEM medium with 5% DCC-FBS.
(§2) Cell proliferation assays: breast and lung tumor cells (between […]) were plated in 96 well plates using their respective medium with 10% FBS. For experiments using estradiol-17β, cells were rinsed with PBS and incubated with phenol redfree medium with 1% DCC-FBS for 48 hours as described before (24,25). Cells were then treated with different concentrations of SERDs ranging between 0.0001-100 μM. […] Cell counts and viability tests (Trypan blue) were done every 24 hr for 3 days. After 72 hr, proliferation was assessed with the MTS Assay CELLTITER 96® Aqueous Cell Proliferation Assay (Promega) or the Cell Proliferation ELISA, BrdU colorimetric assay (Roche). For the MTS, the absorbance of the formazan product was measured at 490 nanometer using the iMARK microplate reader from BIORAD. The BrdU ELISA assay is based on detection of BrdU incorporated into the genomic DNA of proliferating cells and an anti-BrdU antibody, the reaction product was quantified by measuring the absorbance at 370 nanometers using iMARK microplate reader from BIORAD. Cell numbers were also assessed initially by cell counts to confirm MTS/BrdU data. Experiments were done at least three times to confirm data.

H2122 NSCLC cells = assay: NSCLC cell proliferation in vitro (MTS assay); format: cell-based, human; conditions: 72 hours
Experimental: as §1, §2

[1] = tested on: MCF-7 breast cancer cells; assay: MCF-7 breast cancer cell proliferation (BrdU ELISA) in presence of estradiol-17β; format: cell-based, human; conditions: Homo sapiens, MCF7; 72 hrs in the presence of 1 nM estradiol-17β, BrdU ELISA; read-out: IC50 for inhibition of cell proliferation, MCF-7
Experimental: In experiments to assess potential proliferative effects of novel estrogen receptor ligands, human breast cancer cells were grown in phenol red-free, estrogen-free media with 1% dextran-coated charcoal-treated (DCC)-fetal bovine serum (FBS) for 48 hrs (15,44), then treated with either 1 μM or 50 μM doses of estrogen receptor antagonists in the presence of 1 nM estradiol-17β. Cell counts and viability tests (Trypan blue) were done every 24 hr for 3 days. After 72 hr, proliferation was assessed using the BrdU Cell proliferation ELISA (Roche). Cell numbers were also assessed initially by cell counts to confirm ELISA data. Each antiestrogen was tested at least in three different experiments.
In order to assess the antitumor action of novel estrogen receptor antagonists, we cultured human MCF-7 breast cancer cells with known expression of ERα. Cells were grown in 1% DCC-FBS for 48 hr and then treated with vehicle control or either 1 μM or 50 μM concentrations of antiestrogens JD 101-160 or the pure antiestrogen fulvestrant (FAS), all in the presence of 1 nM estradiol-170. […] Shown in FIG. 2A are results from MCF-7 cells grown in 1% DCC-FBS for 48 hr and then treated with vehicle control, 1 nM estradiol-170 and either 1 μM or 50 μM concentrations of antiestrogens JD 101-160 or the known pure antiestrogen fulvestrant (FAS) in the presence of 1 nM estradiol-170. Cell proliferation is expressed as percentage of that determined in the 1 nM estradiol-170-treated control group.
as §2

Rb serine-780 = Rb serine-780 phosphorylation, Western blot in A549 cells; format: cell-based, human; conditions: 24 h, 1% DCC-FBS, 1 nM E2, 1 nM androstenedione, 10 nM testosterone, 10 μM letrozole, 100 nM palbociclib, FIG. 4C
Experimental: FIG. 4C. […] Cells were treated 24 h in phenol red-free RPMI with 1% DCC-FBS with vehicle control (CON), 1 nM estradiol-17β (E2), 1 nM androstenedione (And), 10 nM testosterone (Tes), 10 μM letrozole (AI), 100 nM palbociclib (Plbo) or both Plbo+AI. After 24 hr, cell lysates subjected to Western blot with antibody to phosphoserine-780 Rb or total Rb (Cell Signaling) (20). GAPDH is used as loading control.
To investigate the antitumor efficacy of CDK 4/6 inhibitor palbociclib in NSCLC cells, we assessed the effects of palbociclib alone and in combination with the hormonal therapeutic letrozole (see FIGS. 4B and 5B). The potential mechanism of action of palbociclib and letrozole in NSCLC cells was investigated by assay of the effects of these agents alone and combined on phosphorylation of Rb serine-780

ER+ early breast cancer = conditions: cited from earlier work
MCF-7 parental cells = conditions: MCF-7 parental xenografts in nude mice; cited from earlier work
MCF-7/HER-2 cells = conditions: MCF-7 cells with HER2-overexpression, xenografts in nude mice; cited from earlier work
[2] = Homo sapiens, A549, CDK 4/6 inhibitor without SERD, 5% DCC-FBS, read-out: IC50 for inhibition of NSCLC cell proliferation, A549
[3] = Homo sapiens, NCI-H1975, CDK 4/6 inhibitor without SERD, 5% DCC-FBS, read-out: IC50 for inhibition of NSCLC cell proliferation, H1975
[4] = Homo sapiens, NCI-H2122, CDK 4/6 inhibitor without SERD, 5% DCC-FBS, read-out: IC50 for inhibition of NSCLC cell proliferation, H2122
[5] = Homo sapiens, A549, SERD alone, estrogen-depleted phenol red-free medium with 5% DCC-FBS, read-out: IC50 for inhibition of NSCLC cell proliferation, A549
[6] = Homo sapiens, NCI-H1975, SERD alone, estrogen-depleted phenol red-free medium with 5% DCC-FBS, read-out: IC50 for inhibition of NSCLC cell proliferation, H1975
[7] = Homo sapiens, NCI-H2122, SERD alone, estrogen-depleted phenol red-free medium with 5% DCC-FBS, read-out: IC50 for inhibition of NSCLC cell proliferation, H2122

What does the source list for `CCN1CCN(Cc2ccc(Nc3ncc(F)c(-c4cc(F)c5nc(C)n(C(C)C)c5c4)n3)nc2)CC1` [Abemaciclib, abemaciclib, reference compound]?
IC50 (A549 NSCLC cells; [2]): 0.99 µM; IC50 (H1975 NSCLC cells; [3]): 0.83 µM; IC50 (H2122 NSCLC cells; [4]): 0.33 µM

For `C[C@]12C[C@H](Oc3ccc(NC(=O)CN4CCOCC4)cc3)[C@@H]3c4ccc(O)cc4CC[C@H]3[C@@H]1CC[C@@H]2O` [JD103, N-(4-(((8S,9S,11S,13S,14S,17S)-3,17-Dihydroxy-13-methyl-7,8,9,11,12,13,14,15,16,17-deca-hydro-6H-cyclopenta[a]phenanthren-11-yl)oxy)phenyl)-2-morpholinoacetamide], which IC50 (A549 NSCLC cells; [5]) is on record?
The IC50 was 1.99 µM.

And the IC50 (A549 NSCLC cells; in the presence of 1 μM abemaciclib, 5% DCC-FBS, read-out: IC50 of SERD for inhibition of NSCLC cell proliferation, A549)?
Its IC50 is 0.56 µM.

What about the IC50 (A549 NSCLC cells; in the presence of 1 μM palbociclib, 5% DCC-FBS, read-out: IC50 of SERD for inhibition of NSCLC cell proliferation, A549) of the same compound?
The IC50 was 1.22 µM.

And the IC50 (H1975 NSCLC cells; [6])?
Its IC50 is 2.1 µM.

What about the IC50 (H1975 NSCLC cells; in the presence of 1 μM abemaciclib, 5% DCC-FBS, read-out: IC50 of SERD for inhibition of NSCLC cell proliferation, H1975) of the same compound?
The IC50 was 2.67 µM.

And the IC50 (H1975 NSCLC cells; in the presence of 1 μM palbociclib, 5% DCC-FBS, read-out: IC50 of SERD for inhibition of NSCLC cell proliferation, H1975)?
The IC50 was 4.55 µM.

What about the IC50 (H2122 NSCLC cells; [7]) of the same compound?
Its IC50 is 1.33 µM.

What about the IC50 (H2122 NSCLC cells; in the presence of 1 μM abemaciclib, 5% DCC-FBS, read-out: IC50 of SERD for inhibition of NSCLC cell proliferation, H2122) of the same compound?
Its IC50 is 0.74 µM.

What about the IC50 (H2122 NSCLC cells; in the presence of 1 μM palbociclib, 5% DCC-FBS, read-out: IC50 of SERD for inhibition of NSCLC cell proliferation, H2122) of the same compound?
Its IC50 is 2.4 µM.

What about the IC50 [1] of the same compound?
Its IC50 is 0.74 µM.

Which IC50 (A549 NSCLC cells; [5]) does the source give for `C[C@]12C[C@H](Oc3ccc(NCCN4CCOCC4)cc3)[C@@H]3c4ccc(O)cc4CC[C@H]3[C@@H]1CC[C@@H]2O` [JD121] here?
The IC50 was 1.26 µM.

What about the IC50 (H1975 NSCLC cells; [6]) of the same compound?
The IC50 was 2.62 µM.

And the IC50 (H2122 NSCLC cells; [7])?
The IC50 was 14.5 µM.

And the IC50 [1]?
The IC50 was 0.36 µM.

With `CN(C)CCCC(=O)Nc1ccc(O[C@H]2C[C@]3(C)[C@@H](O)CC[C@H]3[C@@H]3CCc4cc(O)ccc4[C@H]32)cc1C(F)(F)F` [JD155, N-(4-(((8S,9S,11S,13S,14S,17S)-3,17-Dihydroxy-13-methyl-7,8,9,11,12,13,14,15,16,17-deca-hydro-6H-cyclopenta[a]phenanthren-11-yl)oxy)-2-(trifluoromethyl)phenyl)-4-(dimethylamino)butanamide] as the compound, how does the IC50 (A549 NSCLC cells; [5]) read?
Its IC50 is 2.05 µM.

And the IC50 (H1975 NSCLC cells; [6])?
Its IC50 is 4.41 µM.

What about the IC50 (H2122 NSCLC cells; [7]) of the same compound?
Its IC50 is 1.22 µM.

Which IC50 (A549 NSCLC cells; [5]) does the source give for `C[C@]12C[C@H](Oc3ccc(NC(=O)CCCCN4CCCCC4)c(C(F)(F)F)c3)[C@@H]3c4ccc(O)cc4CC[C@H]3[C@@H]1CC[C@@H]2O` [JD156, N-(4-(((8S,9S,11S,13S,14S,17S)-3,17-Dihydroxy-13-methyl-7,8,9,11,12,13,14,15,16,17-deca-hydro-6H-cyclopenta[a]phenanthren-11-yl)oxy)-2-(trifluoromethyl)phenyl)-5-(piperidin-1-yl)pentanamide] here?
Its IC50 is 1.6 µM.

What about the IC50 (H1975 NSCLC cells; [6]) of the same compound?
Its IC50 is 3.2 µM.

And the IC50 (H2122 NSCLC cells; [7])?
The IC50 was 1.69 µM.

For `C[C@]12C[C@H](Oc3ccc(NC(=O)CCCCN4CCOCC4)c(C(F)(F)F)c3)[C@@H]3c4ccc(O)cc4CC[C@H]3[C@@H]1CC[C@@H]2O` [JD157, N-(4-(((8S,9S,11S,13S,14S,17S)-3,17-Dihydroxy-13-methyl-7,8,9,11,12,13,14,15,16,17-deca-hydro-6H-cyclopenta[a]phenanthren-11-yl)oxy)-2-(trifluoromethyl)phenyl)-5-morpholino-pentanamide], which IC50 (A549 NSCLC cells; [5]) is on record?
Its IC50 is 3.95 µM.

And the IC50 (H1975 NSCLC cells; [6])?
The IC50 was 1.8 µM.

What about the IC50 (H2122 NSCLC cells; [7]) of the same compound?
The IC50 was 1.28 µM.

For `C[C@]12C[C@H](Oc3ccc(NC(=O)CCCN4CCCCC4)c(C(F)(F)F)c3)[C@@H]3c4ccc(O)cc4CC[C@H]3[C@@H]1CC[C@@H]2O` [JD160, N-(4-(((8S,9S,11S,13S,14S,17S)-3,17-Dihydroxy-13-methyl-7,8,9,11,12,13,14,15,16,17-deca-hydro-6H-cyclopenta[a]phenanthren-11-yl)oxy)-2-(trifluoromethyl)phenyl)-4-(piperidin-1-yl)butanamide], which IC50 (A549 NSCLC cells; [5]) is on record?
Its IC50 is 1.41 µM.

What about the IC50 (H1975 NSCLC cells; [6]) of the same compound?
Its IC50 is 2.02 µM.

And the IC50 (H2122 NSCLC cells; [7])?
The IC50 was 2.72 µM.

And the IC50 [1]?
The IC50 was 0.32 µM.

Which results are given for `CC(=O)c1c(C)c2cnc(Nc3ccc(N4CCNCC4)cn3)nc2n(C2CCCC2)c1=O` [Palbociclib, palbociclib, reference compound]?
IC50 (A549 NSCLC cells; [2]): 3.04 µM; IC50 (H1975 NSCLC cells; [3]): 1.18 µM; IC50 (H2122 NSCLC cells; [4]): 0.87 µM

For `C[C@]12CCC(=O)C=C1CC[C@@H]1[C@@H]2CC[C@]2(C)C(=O)CC[C@@H]12` [androstenedione], which “phosphorylation of Rb serine-780” value (Rb serine-780) is on record?
Its value is “stimulate Rb phosphorylation”.

Which results are given for `CC/C(=C(\c1ccccc1)c1ccc(OCCN(C)C)cc1)c1ccccc1` [tamoxifen]?
reduction in disease recurrence (ER+ early breast cancer): 39%; reduction in mortality (ER+ early breast cancer): 31%; growth of parent tumors (xenografts) (MCF-7 parental cells): suppressed; sensitivity of MCF-7/HER-2 xenografts (MCF-7/HER-2 cells): insensitive

For `C[C@]12CC[C@H]3[C@@H](CCC4=CC(=O)CC[C@@]43C)[C@@H]1CC[C@@H]2O` [testosterone], which “phosphorylation of Rb serine-780” value (Rb serine-780) is on record?
Its value is “stimulate Rb phosphorylation”.
